Data taken from US12139492B2 (Endotarget Inc., priority 2021, dated 2024).
Like-named read-outs stand apart in the source and are kept apart here.

Tests used:
JeKo-1 cells = assay: Antiproliferative effect, MTS cell viability assay, JeKo-1 cells; format: cell-based; settings: Homo sapiens; JeKo-1 mantle cell lymphoma cells; read-out: IC50 (anti-proliferation) JeKO-1 cells
Outline: (§1)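 Mino and JeKo-1 mantle B-cell lymphoma lines were exposed to compound at 0, 0.001, 0.01, 0.1, 1 and 10 μM for 72 h. Viability was read by MTS reduction to formazan, measured as absorbance at 490 nm.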

Mino cells = assay: Antiproliferative effect, MTS cell viability assay, Mino cells; format: cell-based; settings: Homo sapiens, Mino mantle cell lymphoma cells, read-out: IC50 (anti-proliferation) Mino cells
Outline: as §1

BTK [1] = biological target: T1, BTK (Homo sapiens, UniProt Q06187); assay: BTK degradation, DC50 and Dmax of Table 1 (cell line not given); format: cell-based; set-up: endogenous in cells; settings: for DC50: concentration giving 50% reduction of BTK expression level
BTK [2] = biological target: T1, BTK; assay: Degradation of BTK protein in Namalwa cells (Western blot; DC50, Dmax); settings: for DC50: cell line not given
[3] = read-out: DC50 (BTK degradation), concentration giving 50% reduction of BTK expression level
[4] = read-out: Dmax (BTK degradation)

T1 sequence (Q06187 whole entry): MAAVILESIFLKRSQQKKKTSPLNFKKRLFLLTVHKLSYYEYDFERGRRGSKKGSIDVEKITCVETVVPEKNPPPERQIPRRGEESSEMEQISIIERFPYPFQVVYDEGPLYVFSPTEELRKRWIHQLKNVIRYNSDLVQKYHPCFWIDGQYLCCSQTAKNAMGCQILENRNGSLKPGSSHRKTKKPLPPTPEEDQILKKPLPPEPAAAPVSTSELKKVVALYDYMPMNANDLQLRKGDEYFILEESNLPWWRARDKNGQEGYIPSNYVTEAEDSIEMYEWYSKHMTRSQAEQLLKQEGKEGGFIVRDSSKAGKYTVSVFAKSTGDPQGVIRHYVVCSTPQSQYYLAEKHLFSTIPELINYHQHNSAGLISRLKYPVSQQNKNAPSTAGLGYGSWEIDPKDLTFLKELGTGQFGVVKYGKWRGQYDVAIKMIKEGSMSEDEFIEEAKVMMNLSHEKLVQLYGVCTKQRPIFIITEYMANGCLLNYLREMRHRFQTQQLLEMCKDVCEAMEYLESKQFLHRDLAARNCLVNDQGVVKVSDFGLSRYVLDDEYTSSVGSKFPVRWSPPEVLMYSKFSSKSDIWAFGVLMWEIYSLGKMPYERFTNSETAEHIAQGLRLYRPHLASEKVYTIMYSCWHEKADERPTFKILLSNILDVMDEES

Row | SMILES | IC50 (JeKo-1 cells) | IC50 (Mino cells; MINO) | Dmax (BTK [1]) | DC50 (BTK [1]) | Dmax (BTK [2]) | DC50 (BTK [2]; BTK degradation) | DC50 (BTK [2]; [3]) | Dmax (BTK [2]; [4]) | IC50 (Mino cells)
1 | Nc1ncnc2c1c(-c1ccc(Oc3ccccc3)cc1)nn2[C@@H]1CCCN(C2CCN(C(=O)N3CCN(CC4CCN(c5ccc6c(c5)CN(C5CCC(=O)NC5=O)C6=O)CC4)CC3)CC2)C1 (stereo partly drawn) [Compound 172, 3-(5-(4-((4-((R)-3-(4-amino-3-(4-phenoxyphenyl)-1H-pyrazolo[3,4-d]pyrimidin-1-yl)-[1,4′-bipiperidine]-1′-carbonyl)piperazin-1-yl)methyl)piperidin-1-yl)-1-oxoisoindolin-2-yl)piperidine-2,6-dione] | 1000 to 10000 nM | 1000 to 10000 nM | > 90% | 10 to 50 nM |  |  |  |  | 
2 | Nc1ncnc2c1c(-c1ccc(Oc3ccccc3)cc1)nn2C1CCN(C(=O)N2CCC(CCCC3CCN(c4ccc5c(c4)CN(C4CCC(=O)NC4=O)C5=O)CC3)CC2)CC1 (stereo not drawn) [Compound 126, 3-(5-(4-(3-(1-(4-(4-amino-3-(4-phenoxyphenyl)-1H-pyrazolo[3,4-d]pyrimidin-1-yl)piperidine-1-carbonyl)piperidin-4-yl)propyl)piperidin-1-yl)-1-oxoisoindolin-2-yl)piperidine-2,6-dione] | > 10000 nM | 1000 to 10000 nM | > 90% | > 50 nM |  |  |  |  | 
3 | NC(=O)c1c(-c2ccc(Oc3ccccc3)cc2)nn2c1NCC[C@H]2C1CCN(C(=O)N2CCC(CC3CCN(c4ccc5c(c4)CN(C4CCC(=O)NC4=O)C5=O)CC3)CC2)CC1 (stereo partly drawn) [Compound 294, (7S)-7-(1-(4-((1-(2-(2,6-dioxopiperidin-3-yl)-1-oxoisoindolin-5-yl)piperidin-4-yl)methyl)piperidine-1-carbonyl)piperidin-4-yl)-2-(4-phenoxyphenyl)-4,5,6,7-tetrahydropyrazolo[1,5-a]pyrimidine-3-carboxamide] | 1000 to 10000 nM | < 1000 nM |  |  | > 90% | 10 to 50 nM |  |  | 
4 | NC(=O)c1c(-c2ccc(Oc3ccccc3)cc2)nn2c1NCCC2C1CCN(CCOCCOCCN2CCN(c3ccc4c(c3)CN(C3CCC(=O)NC3=O)C4=O)CC2)CC1 (stereo not drawn) [Compound 270, 7-(1-(2-(2-(2-(4-(2-(2,6-dioxopiperidin-3-yl)-1-oxoisoindolin-5-yl)piperazin-1-yl)ethoxy)ethoxy)ethyl)piperidin-4-yl)-2-(4-phenoxyphenyl)-4,5,6,7-tetrahydropyrazolo[1,5-a]pyrimidine-3-carboxamide] | > 10000 nM | 1000 to 10000 nM |  |  | > 90% | 10 to 50 nM |  |  | 
5 | Nc1ncnc2c1c(-c1ccc(Oc3ccccc3)cc1)nn2C1CCN(C(=O)C2CC(N3CCN(c4ccc5c(c4)C(=O)N(C4CCC(=O)NC4=O)C5=O)CC3)C2)CC1 (stereo not drawn) [Compound 507, 5-(4-(3-(4-(4-amino-3-(4-phenoxyphenyl)-1H-pyrazolo[3,4-d]pyrimidin-1-yl)piperidine-1-carbonyl)cyclobutyl)piperazin-1-yl)-2-(2,6-dioxopiperidin-3-yl)isoindoline-1,3-dione] | < 1000 nM | < 1000 nM |  |  |  |  | < 10 nM | > 90% | 
6 | Nc1ncnc2c1c(-c1ccc(Oc3ccccc3)cc1)nn2C1CCN([C@H]2CCN(CC3CN(c4ccc5c(c4)C(=O)N(C4CCC(=O)NC4=O)C5=O)C3)C2)CC1 (stereo partly drawn) [Compound 425b, 5-(3-(((S)-3-(4-(4-amino-3-(4-phenoxyphenyl)-1H-pyrazolo[3,4-d]pyrimidin-1-yl)piperidin-1-yl)pyrrolidin-1-yl)methyl)azetidin-1-yl)-2-(2,6-dioxopiperidin-3-yl)isoindoline-1,3-dione] | 1000 to 10000 nM | 1000 to 10000 nM |  |  |  |  |  | > 90% | 
7 | NC1=NC=NC2C1C(c1ccc(Oc3ccccc3)cc1)=NN2C1CCN(C(=O)N2CCN(C3CN(c4ccc5c(c4)C(=O)N(C4CCC(=O)NC4=O)C5=O)C3)CC2)CC1 (stereo not drawn) [Compound 503, 5-(3-(4-(4-(4-amino-3-(4-phenoxyphenyl)-3a,7a-dihydro-1H-pyrazolo[3,4-d]pyrimidin-1-yl)piperidine-1-carbonyl)piperazin-1-yl)azetidin-1-yl)-2-(2,6-dioxopiperidin-3-yl)isoindoline-1,3-dione] | < 1000 nM | < 1000 nM |  |  |  |  | 10 to 50 nM | > 75% | 
8 | Nc1ncnc2c1c(-c1ccc(Oc3ccccc3)cc1)nn2C1CCN(CC2CN(CC3CCN(c4ccc5c(c4)CN(C4CCC(=O)NC4=O)C5=O)C3)C2)CC1 (stereo not drawn) [Compound 444, 3-(5-(3-((3-((4-(4-amino-3-(4-phenoxyphenyl)-1H-pyrazolo[3,4-d]pyrimidin-1-yl)piperidin-1-yl)methyl)azetidin-1-yl)methyl)pyrrolidin-1-yl)-1-oxoisoindolin-2-yl)piperidine-2,6-dione] | < 1000 nM | < 1000 nM |  |  |  |  | < 10 nM | > 90% | 
9 | Nc1ncnc2c1c(-c1ccc(Oc3ccccc3)cc1)nn2C1CCN(CCN2CC(CN3CCN(c4ccc5c(c4)CN(C4CCC(=O)NC4=O)C5=O)CC3)C2)CC1 (stereo not drawn) [Compound 462, 3-(5-(4-((1-(2-(4-(4-amino-3-(4-phenoxyphenyl)-1H-pyrazolo[3,4-d]pyrimidin-1-yl)piperidin-1-yl)ethyl)azetidin-3-yl)methyl)piperazin-1-yl)-1-oxoisoindolin-2-yl)piperidine-2,6-dione] | 1000 to 10000 nM | 1000 to 10000 nM |  |  |  |  | 10 to 50 nM | > 50% | 
10 | Nc1ncnc2c1c(-c1ccc(Oc3ccccc3)cc1)nn2C1CCN(C2CCN(CCN3CCN(c4ccc(N5CCC(=O)NC5=O)cc4)CC3)C2)CC1 (stereo not drawn) [Compound 575, 1-(4-(4-(2-(3-(4-(4-amino-3-(4-phenoxyphenyl)-1H-pyrazolo[3,4-d]pyrimidin-1-yl)piperidin-1-yl)pyrrolidin-1-yl)ethyl)piperazin-1-yl)phenyl)dihydropyrimidine-2,4(1H,3H)-dione] | 1000 to 10000 nM | 1000 to 10000 nM |  |  |  |  | < 10 nM | > 90% | 
11 | Nc1ncnc2c1c(-c1ccc(Oc3ccccc3)cc1)nn2[C@@H]1CCCN(C2CCN(C(=O)N3CCC(CCCN4CCC(c5ccc6c(c5)C(=O)N(C5CCC(=O)NC5=O)C6=O)CC4)CC3)CC2)C1 (stereo partly drawn) [Compound 197, 5-(1-(3-(1-((R)-3-(4-amino-3-(4-phenoxyphenyl)-1H-pyrazolo[3,4-d]pyrimidin-1-yl)-[1,4′-bipiperidine]-1′-carbonyl)piperidin-4-yl)propyl)piperidin-4-yl)-2-(2,6-dioxopiperidin-3-yl)isoindoline-1,3-dione] | > 10000 nM | 1000 to 10000 nM |  |  | > 75% | 10 to 50 nM |  |  | 
12 | Nc1ncnc2c1c(-c1ccc(Oc3ccccc3)cc1)nn2C1CCN(CCN2CCC(N3CCN(c4ccc5c(c4)C(=O)N(C4CCC(=O)NC4=O)C5=O)CC3)CC2)CC1 (stereo not drawn) [Compound 457, 5-(4-(1-(2-(4-(4-amino-3-(4-phenoxyphenyl)-1H-pyrazolo(3,4-d)pyrimidin-1-vi)piperidin-1-yl)ethyl)piperidin-4-yl)piperazin-1-yl)-2-(2,6-dioxopiperidin-3-yl)isoindoline-1,3-dione] | < 1000 nM |  |  |  |  |  | < 10 nM | > 90% | < 1000 nM
13 | Nc1ncnc2c1c(-c1ccc(Oc3ccccc3)cc1)nn2C1CCN(CC2CCN(CC3CN(CC4CN(c5ccc6c(c5)CN(C5CCC(=O)NC5=O)C6=O)C4)C3)C2)CC1 (stereo not drawn) [Compound 428, 3-(5-(3-((3-((3-((4-(4-amino-3-(4-phenoxyphenyl)-1H-pyrazolo[3,4-d]pyrimidin-1-yl)piperidin-1-yl)methyl)pyrrolidin-1-yl)methyl)azetidin-1-yl)methyl)azetidin-1-yl)-1-oxoisoindolin-2-yl)piperidine-2,6-dione] | 1000 to 10000 nM | 1000 to 10000 nM |  |  |  |  | 10 to 50 nM | > 90% | 
14 | Nc1ncnc2c1c(-c1ccc(Oc3ccccc3)cc1)nn2[C@@H]1CCCN(C(=O)N2CC(N3CCN(c4ccc5c(c4)C(=O)N(C4CCC(=O)NC4=O)C5=O)CC3)C2)C1 (stereo partly drawn) [Compound 487, 5-(4-(1-((R)-3-(4-amino-3-(4-phenoxyphenyl)-1H-pyrazolo[3,4-d]pyrimidin-1-yl)piperidine-1-carbonyl)azetidin-3-yl)piperazin-1-yl)-2-(2,6-dioxopiperidin-3-yl)isoindoline-1,3-dione] | < 1000 nM | < 1000 nM |  |  |  |  | < 10 nM | > 90% | 
15 | Nc1ncnc2c1c(-c1ccc(Oc3ccccc3)cc1)nn2C1CCN(CC2CCN(CCCN3CCN(c4ccc(N5CCC(=O)NC5=O)cc4)CC3)CC2)CC1 [Compound 582, 1-(4-(4-(3-(4-((4-(4-amino-3-(4-phenoxyphenyl)-1H-pyrazolo[3,4-d]pyrimidin-1-yl)piperidin-1-yl)methyl)piperidin-1-yl)propyl)piperazin-1-yl)phenyl)dihydropyrimidine-2,4(1H,3H)-dione] | 1000 to 10000 nM | < 1000 nM |  |  |  |  | 10 to 50 nM | > 90% | 
16 | NC(=O)c1c(-c2ccc(Oc3ccccc3)cc2)nn2c1NCC[C@H]2C1CCN(C(=O)N2CCC(CCN3CCC(c4ccc5c(c4)CN(C4CCC(=O)NC4=O)C5=O)CC3)CC2)CC1 (stereo partly drawn) [Compound 302, (7S)-7-(1-(4-(2-(4-(2-(2,6-dioxopiperidin-3-yl)-1-oxoisoindolin-5-yl)piperidin-1-yl)ethyl)piperidine-1-carbonyl)piperidin-4-yl)-2-(4-phenoxyphenyl)-4,5,6,7-tetrahydropyrazolo[1,5-a]pyrimidine-3-carboxamide] | 1000 to 10000 nM | 1000 to 10000 nM |  |  | > 75% | 10 to 50 nM |  |  | 
